Data: PubChem BioAssay (NCI)
Where “and” joins values, the source holds several entries; their conditions need not be identical. Equal entries are not always repeated.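 Tested at 5 concentrations; 48 h exposure; 96-well plates; endpoints linearly interpolated, else capped at highest concentration. GI50 marks 50% less growth. Definition used: TGI = concentration required for complete inhibition of growth.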

Key:
Assay in all cases: inhibition of tumour cell growth, NCI panel, 48 h
HCC-2998 colon = test system: HCC-2998 colon
HOP-62 NSCLC = test system: HOP-62 NSCLC
HOP-92 NSCLC = test system: HOP-92 NSCLC
NCI-H23 lung = test system: NCI-H23 lung
NCI-H522 lung = test system: NCI-H522 lung
SF-295 CNS = test system: SF-295 CNS
SK-OV-3 ovarian = test system: SK-OV-3 ovarian
SN12C renal = test system: SN12C renal
SW-620 colon = test system: SW-620 colon
MALME-3M melanoma = test system: MALME-3M melanoma

Structure (SMILES)	GI50 (HCC-2998 colon) [µM]	TGI (HCC-2998 colon)	GI50 (HOP-62 NSCLC) [µM]	TGI (HOP-62 NSCLC) [µM]	GI50 (HOP-92 NSCLC) [µM]	TGI (HOP-92 NSCLC)	GI50 (NCI-H23 lung) [µM]	TGI (NCI-H23 lung)	GI50 (NCI-H522 lung) [µM]	TGI (NCI-H522 lung)	GI50 (SF-295 CNS) [µM]	TGI (SF-295 CNS) [µM]	GI50 (SK-OV-3 ovarian) [µM]	TGI (SK-OV-3 ovarian)	GI50 (SN12C renal) [µM]	TGI (SN12C renal)	GI50 (SW-620 colon) [µM]	TGI (SW-620 colon)	TGI (MALME-3M melanoma)	GI50 (MALME-3M melanoma) [µM]
CCOC(=O)c1ccccc1NC(c1ccccc1)c1ccc2cccnc2c1O (configuration not stated)	5.77	> 100 µM	3.31	> 100	7.98	> 100 µM	4.22	> 100 µM	3.36	11.6 µM	3.24	> 100	3.64	56.4 µM	3.83	> 100 µM	3.89	> 100 µM	–	–
COc1cccc2c1C(=N)c1c(O)c3c(c(O)c1C2=O)C[C@@](O)(C(C)=O)C[C@@H]3OC1CC(N)C(O)C(C)O1 (some centres not stated)	–	2.48 µM and 3.14 µM and 0.541 µM	–	–	–	2.71 µM and 3.58 µM	–	0.607 µM and 1.62 µM and 1.2 µM	–	2.4 µM and 1.13 µM and 1.91 µM	–	–	–	1.85 µM and 4.8 µM and 13.6 µM	–	1.28 µM and 1.92 µM and 2.23 µM	–	4.39 µM and 8.73 µM and 10.5 µM	1.83 µM and 5.14 µM and 2.21 µM	–
COc1ccc(/C=C(\NC(=O)c2ccccc2)c2nc3ccccc3[nH]2)cc1	–	> 100 µM	–	> 100	–	> 100 µM	–	56.1 µM	–	> 100 µM	–	–	–	96.5 µM	–	> 100 µM	–	> 100 µM	> 100 µM	–
CC(C)(O)C1CC(=O)C(C)(C2C(O)CC3(C)C4CC=C5C(CCC(O)C5(C)C)C4(C)C(=O)CC23C)O1 (configuration not stated)	–	> 100 µM	–	> 100	–	> 100 µM	–	> 100 µM	–	> 100 µM	–	> 100	–	> 100 µM	–	> 100 µM	–	> 100 µM	–	–
O=C1c2cccc3cc4ccccc4c(c23)C(=O)N1CCCNCCNCCCN1C(=O)c2cccc3cc4ccccc4c(c23)C1=O	–	1.71 µM	–	1.72	–	–	–	1.77 µM	–	1.46 µM	–	1.64	–	1.65 µM	–	1.86 µM	–	–	1.8 µM	–
Cc1cccc(NC(=O)c2sc3nc4c(cc3c2N)CCC4)c1C	0.687	22.5 µM	0.428	17.4	0.449	19 µM	0.749	> 100 µM	0.325	16.5 µM	0.245	11.1	0.379	18.4 µM	0.888	> 100 µM	0.359	> 100 µM	–	–
Cn1c(N)c(N=Nc2ccc(S(N)(=O)=O)cc2)c(=O)n(C)c1=O	–	–	–	> 100	–	> 100 µM	–	> 100 µM	–	> 100 µM	–	> 100	–	> 100 µM	–	> 100 µM	–	> 100 µM	> 100 µM	–
S=C(N/N=C/c1ccccc1)NC1CC(c2ccccc2)Oc2ccccc21 (configuration not stated)	–	> 100 µM	–	–	–	10.2 µM	–	> 100 µM	–	> 100 µM	–	87.7	–	> 100 µM	–	> 100 µM	–	> 100 µM	> 100 µM	–
Cc1nn(C(=O)CC(=O)Nc2ccccc2Cl)c(C)c1N=Nc1ccccc1Cl	–	> 100 µM	–	> 100	–	> 100 µM	–	> 100 µM	–	–	–	> 100	–	> 100 µM	–	> 100 µM	–	> 100 µM	> 100 µM	–
O=S(O)CCCSSCCCCSSCCCS(=O)O	–	> 100 µM	–	> 100	–	–	–	> 100 µM	–	> 100 µM	–	> 100	–	> 100 µM	–	> 100 µM	–	> 100 µM	> 100 µM	–
C=CC(=O)N1CC[C@@H](Oc2nc(Nc3ccc(N4CCC(N5CCN(C)CC5)CC4)cc3)c(C(N)=O)nc2CC)C1	> 100	> 100 µM	–	–	> 100	> 100 µM	> 100	> 100 µM	> 100	> 100 µM	> 100	> 100	> 100	> 100 µM	> 100	> 100 µM	> 100	> 100 µM	> 100 µM	> 100
N#Cc1c(-c2ccc(Cl)cc2)n([O-])c2ccccc2[n+]1=O	13.3	26 µM	16.7	30.9	1.61	3.24 µM	16.2	31.3 µM	14.7	38.5 µM	16.4	30.3	24.8	72.3 µM	15.5	37.2 µM	12.7	34.1 µM	–	–
CN(C)c1ccc(/C=C/C(=O)c2ccc(Nc3nc(Nc4ccc(F)cc4)nc(Nc4ccc(Cl)cc4)n3)cc2)cc1	15.4	> 100 µM	9.42	28.3	–	–	5.95	39.5 µM	3.17	24.1 µM	4.78	31.9	19	74.9 µM	15.3	> 100 µM	6.79	33.6 µM	33.8 µM	10.7
COc1ccc2nccc(C3OC(=O)N4CCC(=O)CC34)c2c1 (configuration not stated)	–	–	–	> 100	–	> 100 µM	–	> 100 µM	–	28.7 µM	–	> 100	–	–	–	> 100 µM	–	> 100 µM	–	–
O=C(/C=C\c1ccc(Cl)c(Cl)c1)c1ccccc1	4.75	16.9 µM	17.3	35.1	–	–	–	–	10.2	22.2 µM	10.9	23.2	14.1	29.8 µM	6.77	19.9 µM	2.21	5.52 µM	–	–
NCCN.O=N[O-].O=N[O-].O=N[O-].O=N[O-].[Co+3].[K+]	–	–	> 100	> 100	85.7	> 100 µM	> 100	> 100 µM	> 100	> 100 µM	> 100	> 100	> 100	> 100 µM	> 100	> 100 µM	> 100	> 100 µM	> 100 µM	> 100
O=C1OC2C(O)COC2(OCc2c[nH]c3ccccc23)C1O (configuration not stated) (tested in a mixture with another compound)	–	–	–	> 100	–	> 100 µM	–	> 100 µM	–	> 100 µM	–	> 100	–	> 100 µM	–	> 100 µM	–	> 100 µM	> 100 µM	–
COc1cc(OC)c(-c2oc3ccccc3c(=O)c2O)c(OC)c1	–	–	–	> 31.5	–	> 100 µM	–	> 100 µM	–	> 29.2 µM	–	> 26.9	–	> 100 µM	–	> 100 µM	–	> 100 µM	98.3 µM	–
